Experiment [1] concerns the target T1, Endoribonuclease toxin MazF (Escherichia coli K-12, UniProt P0AE70).
T1 sequence (P0AE70 whole entry): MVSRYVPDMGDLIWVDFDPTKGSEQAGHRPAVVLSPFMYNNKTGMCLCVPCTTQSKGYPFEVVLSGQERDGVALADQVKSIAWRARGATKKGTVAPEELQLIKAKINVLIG
The experiment can be described thus: MazF toxin RNase activators, dose response, biochemical, fluorescence, single-stranded RNA substrate, uHTS hits (AID 588481). The format is functional.

For experiment [2], the target named is T1, Endoribonuclease toxin MazF. In words: fluorescent RNA oligo signal without MazF, dose response, counter-screen for MazEF activator project, biochemical, fluorescence, single-stranded RNase substrate (AID 588502). The format is functional.
Experiment [3] addresses T2, Insulin-degrading enzyme (Homo sapiens, UniProt P14735).
T2 sequence (P14735 whole entry): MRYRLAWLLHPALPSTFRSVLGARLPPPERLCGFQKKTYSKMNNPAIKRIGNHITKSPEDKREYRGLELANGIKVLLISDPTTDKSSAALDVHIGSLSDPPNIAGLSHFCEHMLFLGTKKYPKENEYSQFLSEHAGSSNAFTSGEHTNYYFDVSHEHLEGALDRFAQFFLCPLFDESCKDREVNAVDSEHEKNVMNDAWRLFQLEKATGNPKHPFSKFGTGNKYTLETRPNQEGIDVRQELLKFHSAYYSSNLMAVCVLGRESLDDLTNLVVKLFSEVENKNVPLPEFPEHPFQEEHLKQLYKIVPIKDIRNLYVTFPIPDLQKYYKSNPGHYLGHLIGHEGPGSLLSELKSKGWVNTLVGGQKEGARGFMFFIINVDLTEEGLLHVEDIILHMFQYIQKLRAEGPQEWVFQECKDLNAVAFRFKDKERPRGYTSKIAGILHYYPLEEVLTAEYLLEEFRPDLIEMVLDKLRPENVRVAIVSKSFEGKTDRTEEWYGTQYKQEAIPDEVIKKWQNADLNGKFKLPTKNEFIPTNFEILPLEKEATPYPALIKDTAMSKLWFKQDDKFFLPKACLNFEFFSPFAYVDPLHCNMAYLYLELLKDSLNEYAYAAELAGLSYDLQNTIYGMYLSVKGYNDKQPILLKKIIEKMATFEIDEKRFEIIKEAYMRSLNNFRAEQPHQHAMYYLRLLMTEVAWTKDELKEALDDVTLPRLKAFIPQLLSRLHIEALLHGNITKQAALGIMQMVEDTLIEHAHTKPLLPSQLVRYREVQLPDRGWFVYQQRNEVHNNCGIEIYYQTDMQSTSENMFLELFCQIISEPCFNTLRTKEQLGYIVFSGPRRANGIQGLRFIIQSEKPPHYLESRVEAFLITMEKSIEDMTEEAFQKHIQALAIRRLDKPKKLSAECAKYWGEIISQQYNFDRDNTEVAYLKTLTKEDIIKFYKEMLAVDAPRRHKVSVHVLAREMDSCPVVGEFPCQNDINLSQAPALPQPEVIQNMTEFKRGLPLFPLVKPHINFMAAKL
In words: activators of recombinant IDE enzyme, dose response, counter-screen for IDE activator project, biochemical, fluorescence polarization (AID 588681). (Counterscreens check selectivity or assay interference.)

The target in experiment [4] is T2, Insulin-degrading enzyme. The experiment can be described thus: activators of endogenous IDE in HEK cells, dose response, cell-based, fluorescence polarization (AID 588439). The class given is functional. A general note: Polarisation of emitted light reports the rotation of a fluorescent probe.
Experiment [5] concerns HEK293. In words: HEK cell cytotoxicity by LDH release, dose response, cytotoxicity control for IDE activator project, fluorescence, HEK cells (AID 588440).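 Further: cytotoxicity by LDH release measuring loss of membrane integrity.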 The format is functional, cell-based. Conditions: Homo sapiens. A general note: LDH leaks from cells whose membrane has failed.
Experiment [6] has as its system HEK293. In words: optical interference in Abeta FP readout, dose response, artefact control for IDE activator project, biochemical, fluorescence polarization (AID 588442). The class given is functional, cell-based. The following applies: Homo sapiens.
For the next experiment, the target named is T3, Caspase-3 (Homo sapiens, UniProt P42574).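 Further: Dose-response selectivity test against caspase-3 for candidate inhibitors of sentrin-specific proteases (SENPs).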
T3 sequence (P42574 whole entry): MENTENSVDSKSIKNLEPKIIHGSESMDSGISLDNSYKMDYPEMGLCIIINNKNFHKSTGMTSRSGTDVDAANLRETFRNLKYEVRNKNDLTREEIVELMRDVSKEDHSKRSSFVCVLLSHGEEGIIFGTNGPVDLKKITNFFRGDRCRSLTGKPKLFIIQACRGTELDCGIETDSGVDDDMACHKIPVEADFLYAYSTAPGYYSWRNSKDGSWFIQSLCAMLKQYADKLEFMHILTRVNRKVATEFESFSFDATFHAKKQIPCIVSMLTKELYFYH
The format is functional.

The target in experiment [7] is T4, Sentrin-specific protease 7 (Homo sapiens, UniProt Q9BQF6).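 Further: Luminescence-based dose-response confirmation of ultra-high-throughput screening hits, measuring inhibition of SENP7.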
T4 sequence (Q9BQF6 whole entry): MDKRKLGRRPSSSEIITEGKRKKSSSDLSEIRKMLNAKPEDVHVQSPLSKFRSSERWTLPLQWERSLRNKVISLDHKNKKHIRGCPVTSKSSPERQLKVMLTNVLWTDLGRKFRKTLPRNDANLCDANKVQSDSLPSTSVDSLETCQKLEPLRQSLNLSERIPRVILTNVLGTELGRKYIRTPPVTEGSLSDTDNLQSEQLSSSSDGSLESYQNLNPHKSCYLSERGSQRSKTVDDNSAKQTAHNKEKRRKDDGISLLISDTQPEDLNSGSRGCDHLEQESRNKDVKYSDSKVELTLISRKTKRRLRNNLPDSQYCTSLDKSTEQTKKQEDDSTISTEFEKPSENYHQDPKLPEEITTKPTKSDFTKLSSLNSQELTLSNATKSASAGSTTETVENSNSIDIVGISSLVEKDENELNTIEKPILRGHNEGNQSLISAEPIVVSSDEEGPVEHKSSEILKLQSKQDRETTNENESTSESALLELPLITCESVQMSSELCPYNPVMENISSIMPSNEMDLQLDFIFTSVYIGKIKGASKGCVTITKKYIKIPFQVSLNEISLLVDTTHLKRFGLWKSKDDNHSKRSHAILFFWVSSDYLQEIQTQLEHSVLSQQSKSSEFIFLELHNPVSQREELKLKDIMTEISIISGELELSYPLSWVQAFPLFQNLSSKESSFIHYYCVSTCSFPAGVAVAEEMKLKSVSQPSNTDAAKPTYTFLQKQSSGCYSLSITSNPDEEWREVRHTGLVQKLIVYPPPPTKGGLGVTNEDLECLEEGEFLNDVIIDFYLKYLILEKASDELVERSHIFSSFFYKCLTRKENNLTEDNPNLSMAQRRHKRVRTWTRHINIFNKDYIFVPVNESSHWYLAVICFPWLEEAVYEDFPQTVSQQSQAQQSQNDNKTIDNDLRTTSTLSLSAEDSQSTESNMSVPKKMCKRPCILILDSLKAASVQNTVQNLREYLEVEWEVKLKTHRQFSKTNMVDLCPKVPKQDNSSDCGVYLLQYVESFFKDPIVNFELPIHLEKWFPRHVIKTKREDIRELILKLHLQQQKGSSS
The class given is functional.

For experiment [8], the target named is T5, Sentrin-specific protease 6 (Homo sapiens, UniProt Q9GZR1).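 Further: Luminescence-based dose-response confirmatory assay of SENP6 inhibition, following up an ultra-high-throughput screen.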
T5 sequence (Q9GZR1 whole entry): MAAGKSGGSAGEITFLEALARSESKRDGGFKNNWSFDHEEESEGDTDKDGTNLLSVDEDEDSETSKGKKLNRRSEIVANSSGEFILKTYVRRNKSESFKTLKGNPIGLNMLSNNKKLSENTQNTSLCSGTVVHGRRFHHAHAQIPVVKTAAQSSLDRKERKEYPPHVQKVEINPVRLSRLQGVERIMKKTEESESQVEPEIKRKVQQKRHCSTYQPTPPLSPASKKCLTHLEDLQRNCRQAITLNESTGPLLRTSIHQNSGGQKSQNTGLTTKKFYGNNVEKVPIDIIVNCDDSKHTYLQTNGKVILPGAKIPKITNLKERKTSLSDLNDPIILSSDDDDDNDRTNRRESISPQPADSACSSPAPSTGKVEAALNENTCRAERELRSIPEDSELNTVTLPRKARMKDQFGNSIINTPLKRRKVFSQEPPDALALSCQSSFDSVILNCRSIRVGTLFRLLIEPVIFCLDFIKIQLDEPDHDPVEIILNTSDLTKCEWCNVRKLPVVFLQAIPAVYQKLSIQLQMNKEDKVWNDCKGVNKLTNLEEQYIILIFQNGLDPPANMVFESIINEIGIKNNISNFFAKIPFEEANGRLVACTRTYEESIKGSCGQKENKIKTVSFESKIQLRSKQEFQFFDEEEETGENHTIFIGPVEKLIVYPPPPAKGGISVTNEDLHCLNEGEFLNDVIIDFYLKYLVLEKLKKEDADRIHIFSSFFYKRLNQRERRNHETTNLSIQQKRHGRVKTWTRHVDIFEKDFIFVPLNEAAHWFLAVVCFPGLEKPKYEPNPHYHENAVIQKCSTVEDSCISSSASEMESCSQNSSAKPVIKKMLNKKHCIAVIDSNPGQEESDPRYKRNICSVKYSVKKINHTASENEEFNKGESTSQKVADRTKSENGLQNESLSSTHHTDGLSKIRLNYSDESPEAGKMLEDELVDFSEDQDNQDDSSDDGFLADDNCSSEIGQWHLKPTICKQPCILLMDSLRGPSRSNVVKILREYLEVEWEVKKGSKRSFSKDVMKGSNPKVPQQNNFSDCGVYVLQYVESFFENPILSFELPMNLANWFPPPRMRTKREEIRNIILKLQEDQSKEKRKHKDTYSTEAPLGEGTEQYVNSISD
The format is functional.

Experiment [9] deals with T6, Sentrin-specific protease 8 (Homo sapiens, UniProt Q96LD8).
T6 sequence (Q96LD8 whole entry): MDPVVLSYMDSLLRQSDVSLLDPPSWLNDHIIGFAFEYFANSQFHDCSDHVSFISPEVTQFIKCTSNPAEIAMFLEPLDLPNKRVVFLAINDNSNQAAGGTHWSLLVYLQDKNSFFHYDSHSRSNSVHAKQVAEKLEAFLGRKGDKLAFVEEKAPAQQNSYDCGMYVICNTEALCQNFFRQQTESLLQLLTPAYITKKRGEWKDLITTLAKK
The format is functional.

Experiment [10] addresses T7, Oxysterols receptor LXR-beta (Homo sapiens, UniProt P55055).
T7 sequence (P55055 whole entry): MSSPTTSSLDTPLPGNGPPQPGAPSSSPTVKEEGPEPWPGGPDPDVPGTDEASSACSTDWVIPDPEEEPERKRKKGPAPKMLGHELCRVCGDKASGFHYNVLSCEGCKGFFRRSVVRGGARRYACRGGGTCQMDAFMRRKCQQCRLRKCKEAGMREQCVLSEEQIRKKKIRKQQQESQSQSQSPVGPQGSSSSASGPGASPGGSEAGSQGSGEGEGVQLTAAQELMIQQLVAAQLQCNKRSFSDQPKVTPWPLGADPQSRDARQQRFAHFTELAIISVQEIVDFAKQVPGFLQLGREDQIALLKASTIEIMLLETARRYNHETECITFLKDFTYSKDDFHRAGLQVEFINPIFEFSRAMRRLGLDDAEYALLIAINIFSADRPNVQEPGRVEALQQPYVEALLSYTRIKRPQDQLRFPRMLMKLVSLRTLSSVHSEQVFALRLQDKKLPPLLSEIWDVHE
The format is functional, cell-based.

SMILES strings stand for the structures. The source made the active and inactive calls.

What is called EC50 is the concentration at which the effect is half-maximal. For `COc1cccc(C2=CC(c3ccc(N(C)C)cc3)n3nnnc3N2)c1` (stereo not drawn), the EC50 in experiment [1] and in experiment [2] was > 99 µM (inactive) each time.
Broadly, the IC50 is the midpoint of a concentration-inhibition curve. Turning to `CC(=O)Nc1ccc(S(=O)(=O)NCCc2ccccn2)cc1`, the figures for the EC50 at Insulin-degrading enzyme [3], on Insulin-degrading enzyme [4] and in the experiment on HEK293 [6] were > 54.7 µM (inactive), > 54.7 µM (inactive) and > 56 µM (inactive), respectively. For the same molecule, the IC50 in the experiment on HEK293 [5] is > 89.2 µM (inactive).
On to `CSC1=N/C(=C\c2ccc(C)s2)C(=O)S1`, for which the EC50 in [1] was 89.7 µM (inactive); in experiment [2], 72 µM (inactive).
For the molecule `CCOc1ccc2nc(NC(=O)Nc3cccs3)sc2c1`, the IC50 at Caspase-3 is 29.9 µM (active); in experiment [7], 8.66 µM (active); in experiment [8], 19.2 µM (active); in [9], 24.1 µM (active). The EC50 in experiment [10] was > 67.5 µM (inactive).

(Values after ChEMBL document CHEMBL1201862, “PubChem BioAssay data set” (2004).)
